Results as given in patent US20220151962A1, “NOVEL INHIBITORS OF HISTONE DEACETYLASE 10” (Deutsches Krebsforschungszentrum, priority 2019, published 2022).

Tests used:
HDAC8 = molecular target: T1, HDAC8 (Homo sapiens, UniProt Q9BY41); test: HDAC-Glo I/II assay, HDAC8; type: biochemical; parameters: purchased BPS Bioscience 50008; settings: recombinant human HDAC8, HDAC-Glo; for IC50: read-out: pIC50 HDAC8 Glo (converted)
T1 sequence (Q9BY41 1-377): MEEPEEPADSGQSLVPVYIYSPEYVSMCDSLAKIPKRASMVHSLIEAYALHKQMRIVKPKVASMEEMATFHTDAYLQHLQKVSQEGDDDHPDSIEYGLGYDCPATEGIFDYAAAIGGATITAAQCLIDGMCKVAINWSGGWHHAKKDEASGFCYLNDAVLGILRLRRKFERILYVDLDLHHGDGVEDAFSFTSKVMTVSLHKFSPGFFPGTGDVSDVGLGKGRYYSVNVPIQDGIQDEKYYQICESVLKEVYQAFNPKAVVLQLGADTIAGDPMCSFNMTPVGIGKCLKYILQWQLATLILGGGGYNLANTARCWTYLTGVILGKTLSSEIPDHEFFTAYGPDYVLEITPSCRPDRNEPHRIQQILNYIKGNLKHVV

HDAC3/NcoR2 complex = molecular target: T2, HDAC3/NcoR2 complex (Homo sapiens, UniProt O15379); test: HDAC-Glo I/II assay, HDAC3/NcoR2 complex; type: biochemical; settings: recombinant human HDAC3/NcoR2 complex; for IC50: read-out: pIC50 HDAC3 Glo (converted)
T2 construct: purchased BPS Bioscience 50003

HDAC1 = molecular target: T3, HDAC1 (Homo sapiens, UniProt Q13547); test: HDAC-Glo I/II assay, HDAC1; type: biochemical; settings: recombinant human HDAC1, HDAC-Glo; for IC50: read-out: pIC50 HDAC1 Glo (converted)
T3 construct: purchased BPS Bioscience 50051

HDAC6 = molecular target: T4, HDAC6 (Homo sapiens, UniProt Q9UBN7); test: HDAC-Glo I/II assay, HDAC6; type: biochemical; settings: recombinant human HDAC6, HDAC-Glo; read-out: pIC50 HDAC6 Glo (converted)
T4 construct: purchased BPS Bioscience 50006
T4 sequence (Q9UBN7 1-1215): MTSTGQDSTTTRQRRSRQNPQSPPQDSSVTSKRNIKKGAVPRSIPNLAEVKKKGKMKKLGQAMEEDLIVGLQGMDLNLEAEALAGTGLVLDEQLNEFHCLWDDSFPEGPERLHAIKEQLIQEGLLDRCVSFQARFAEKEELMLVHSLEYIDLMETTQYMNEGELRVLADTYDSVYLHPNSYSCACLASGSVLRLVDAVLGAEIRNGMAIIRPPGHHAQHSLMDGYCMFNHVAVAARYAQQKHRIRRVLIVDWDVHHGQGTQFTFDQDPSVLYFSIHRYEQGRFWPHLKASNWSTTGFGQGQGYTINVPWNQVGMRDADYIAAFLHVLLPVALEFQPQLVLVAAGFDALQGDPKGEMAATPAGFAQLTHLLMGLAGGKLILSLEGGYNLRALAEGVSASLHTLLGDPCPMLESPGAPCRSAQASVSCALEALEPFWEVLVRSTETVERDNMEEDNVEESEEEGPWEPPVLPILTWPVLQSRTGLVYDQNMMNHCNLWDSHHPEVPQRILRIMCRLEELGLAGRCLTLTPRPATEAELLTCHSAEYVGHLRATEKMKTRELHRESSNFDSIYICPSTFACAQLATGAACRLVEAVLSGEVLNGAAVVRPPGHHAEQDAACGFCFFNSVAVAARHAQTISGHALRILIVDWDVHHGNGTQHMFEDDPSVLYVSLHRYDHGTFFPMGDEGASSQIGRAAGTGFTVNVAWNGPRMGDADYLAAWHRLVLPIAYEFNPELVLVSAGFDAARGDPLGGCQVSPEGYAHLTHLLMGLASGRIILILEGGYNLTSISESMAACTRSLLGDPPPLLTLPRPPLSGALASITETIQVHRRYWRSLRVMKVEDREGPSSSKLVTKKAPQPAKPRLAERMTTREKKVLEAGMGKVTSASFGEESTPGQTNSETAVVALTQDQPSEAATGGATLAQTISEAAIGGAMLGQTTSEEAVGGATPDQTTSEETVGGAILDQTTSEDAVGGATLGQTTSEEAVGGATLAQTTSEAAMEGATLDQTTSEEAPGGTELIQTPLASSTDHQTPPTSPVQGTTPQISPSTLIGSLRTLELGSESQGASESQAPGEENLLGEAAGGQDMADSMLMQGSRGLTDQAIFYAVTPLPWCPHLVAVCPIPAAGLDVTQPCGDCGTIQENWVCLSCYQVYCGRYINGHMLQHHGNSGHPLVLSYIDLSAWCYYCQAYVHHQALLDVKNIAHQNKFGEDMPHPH

HDAC2 = molecular target: T5, HDAC2 (Homo sapiens, UniProt Q92769); test: HDAC-Glo I/II assay, HDAC2; type: biochemical; settings: recombinant human HDAC2, HDAC-Glo; for IC50: read-out: pIC50 HDAC2 Glo (converted)
T5 construct: purchased BPS Bioscience 50002

TwinStrep-GST-HDAC10 = molecular target: T6, TwinStrep-GST-HDAC10 (Homo sapiens, UniProt Q969S8); test: HDAC10 TR-FRET assay (Tubastatin-AF647-Tracer displacement); type: binding; settings: TR-FRET, 60 min at rt; for IC50: read-out: pIC50 HDAC10 FRET (converted)
T6 construct: made in house; host or cells: Sf21 insect cells (baculovirus, pFastBac1)
T6 sequence (Q969S8 1-669): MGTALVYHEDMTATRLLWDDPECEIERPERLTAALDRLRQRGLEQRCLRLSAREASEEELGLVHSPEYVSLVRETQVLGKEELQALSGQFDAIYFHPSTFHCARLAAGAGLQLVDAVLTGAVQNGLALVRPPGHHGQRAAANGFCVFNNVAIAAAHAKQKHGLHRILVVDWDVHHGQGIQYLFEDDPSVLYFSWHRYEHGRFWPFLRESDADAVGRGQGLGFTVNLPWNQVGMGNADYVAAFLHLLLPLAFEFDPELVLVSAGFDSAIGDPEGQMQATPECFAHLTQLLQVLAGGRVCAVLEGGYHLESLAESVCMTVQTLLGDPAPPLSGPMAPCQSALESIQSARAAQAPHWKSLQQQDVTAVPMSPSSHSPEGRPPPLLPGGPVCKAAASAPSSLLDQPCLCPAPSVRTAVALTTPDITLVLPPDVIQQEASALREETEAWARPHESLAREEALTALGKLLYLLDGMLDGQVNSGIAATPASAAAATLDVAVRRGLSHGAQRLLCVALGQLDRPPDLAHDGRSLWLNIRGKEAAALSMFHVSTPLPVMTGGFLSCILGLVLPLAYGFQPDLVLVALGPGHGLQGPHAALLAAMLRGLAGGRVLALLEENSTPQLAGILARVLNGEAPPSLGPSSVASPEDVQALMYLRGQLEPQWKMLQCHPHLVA

T3 sequence (Q13547 whole entry): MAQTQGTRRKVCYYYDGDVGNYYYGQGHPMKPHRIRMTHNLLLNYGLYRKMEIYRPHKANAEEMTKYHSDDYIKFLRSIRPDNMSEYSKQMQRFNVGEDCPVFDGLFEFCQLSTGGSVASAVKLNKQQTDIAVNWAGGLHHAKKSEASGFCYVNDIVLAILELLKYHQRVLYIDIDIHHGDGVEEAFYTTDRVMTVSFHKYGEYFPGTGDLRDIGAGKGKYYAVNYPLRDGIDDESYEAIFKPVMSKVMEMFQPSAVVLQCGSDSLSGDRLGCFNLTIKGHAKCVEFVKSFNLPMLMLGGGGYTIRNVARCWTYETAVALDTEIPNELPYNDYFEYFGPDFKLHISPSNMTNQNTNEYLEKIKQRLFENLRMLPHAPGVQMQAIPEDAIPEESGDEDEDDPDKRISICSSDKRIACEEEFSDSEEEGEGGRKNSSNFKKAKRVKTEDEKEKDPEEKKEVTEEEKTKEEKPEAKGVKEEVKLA
T2 sequence (O15379 whole entry): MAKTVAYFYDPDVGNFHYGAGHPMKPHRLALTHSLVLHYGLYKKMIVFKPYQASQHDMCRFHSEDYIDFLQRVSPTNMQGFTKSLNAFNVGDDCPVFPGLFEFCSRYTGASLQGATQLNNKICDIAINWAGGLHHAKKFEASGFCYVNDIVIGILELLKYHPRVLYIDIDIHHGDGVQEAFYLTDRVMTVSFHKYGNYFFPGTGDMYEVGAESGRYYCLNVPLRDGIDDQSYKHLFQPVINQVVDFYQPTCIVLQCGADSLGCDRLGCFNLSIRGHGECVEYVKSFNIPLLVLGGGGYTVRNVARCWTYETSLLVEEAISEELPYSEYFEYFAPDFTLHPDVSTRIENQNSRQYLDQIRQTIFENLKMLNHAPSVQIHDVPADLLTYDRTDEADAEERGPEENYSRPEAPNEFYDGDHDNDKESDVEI
T2 sequence (Q9Y618 395-489 partner limits assumed): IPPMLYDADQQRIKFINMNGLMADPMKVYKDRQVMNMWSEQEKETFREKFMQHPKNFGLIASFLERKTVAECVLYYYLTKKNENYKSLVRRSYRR
T5 sequence (Q92769 whole entry): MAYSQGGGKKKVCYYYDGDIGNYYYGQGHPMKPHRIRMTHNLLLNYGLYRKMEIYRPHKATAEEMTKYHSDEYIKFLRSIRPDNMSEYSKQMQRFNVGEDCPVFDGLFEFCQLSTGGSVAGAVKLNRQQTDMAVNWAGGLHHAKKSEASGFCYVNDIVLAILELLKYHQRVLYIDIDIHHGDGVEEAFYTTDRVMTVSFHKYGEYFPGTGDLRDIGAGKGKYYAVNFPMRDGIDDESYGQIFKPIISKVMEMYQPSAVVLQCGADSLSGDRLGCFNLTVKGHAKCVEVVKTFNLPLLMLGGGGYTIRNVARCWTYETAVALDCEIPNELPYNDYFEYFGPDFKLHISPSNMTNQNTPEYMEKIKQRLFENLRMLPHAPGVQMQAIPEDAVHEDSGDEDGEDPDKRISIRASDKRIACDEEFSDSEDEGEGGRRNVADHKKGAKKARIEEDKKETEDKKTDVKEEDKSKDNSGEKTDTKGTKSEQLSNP

Row | Compound | IC50 (HDAC8) [µM] | IC50 (HDAC3/NcoR2 complex) [µM] | IC50 (HDAC1) [µM] | IC50 (HDAC6) [µM] | IC50 (HDAC2) [µM] | IC50 (TwinStrep-GST-HDAC10) [µM] | pIC50 HDAC10 FRET (TwinStrep-GST-HDAC10) | pIC50 HDAC8 Glo (HDAC8) | pIC50 HDAC1 Glo (HDAC1) | pIC50 HDAC2 Glo (HDAC2) | pIC50 HDAC3 Glo (HDAC3/NcoR2 complex)
1 | CN(CCCC(=O)NO)CCC(=O)Nc1ccccc1 [DKFZ-711] | 3.98 | 79.4 | – | – | – | – | – | – | – | – | –
2 | CCN(CCCC(=O)NO)CCC(=O)Nc1ccccc1 [DKFZ-714, 4-(Ethyl(3-oxo-3-(phenylamino)propyl)amino)-N-hydroxybutanamide] | 5.01 | ~158 | 50.1 | 6.31 | > 200 | – | – | – | – | – | –
3 | CN(CCCC(=O)NO)CCNC(=O)c1ccccc1 [DKFZ-728, N-(2-((4-(Hydroxyamino)-4-oxobutyl)(methyl)amino)ethyl)benzamide] | 15.8 | > 100 | – | – | 50.1 | – | – | – | – | – | –
4 | CN(CCCC(=O)NO)CCNC(=O)c1ccc(O)cc1 [DKFZ-751, 4-Hydroxy-N-(2-((4-(hydroxyamino)-4-oxobutyl)(methyl)amino)ethyl)benzamide] | 25.1 | > 100 | 15.8 | 2 | > 100 | 0.00794 | – | – | – | – | –
5 | CN(CCCC(=O)NO)CCNC(=O)c1ccc(N)cc1 [DKFZ-752, 4-Amino-N-(2-((4-(hydroxyamino)-4-oxobutyl)(methyl)amino)ethyl)benzamide] | 20 | > 100 | 15.8 | 3.98 | > 100 | 0.0158 | – | – | – | – | –
6 | CN(CCCC(=O)NO)CCNC(=O)c1ccccc1O [DKFZ-755, 2-Hydroxy-N-(2-((4-(hydroxyamino)-4-oxobutyl)(methyl)amino)ethyl)benzamide] | 63.1 | > 100 | 63.1 | 12.6 | > 100 | 0.0316 | – | – | – | – | –
7 | Cc1[nH]c2ccccc2c1C(=O)NCCN(C)CCCC(=O)NO [DKFZ-756, N-(2-((4-(Hydroxyamino)-4-oxobutyl)(methyl)amino)ethyl)-2-methyl-1H-indole-3-carboxamide] | 5.01 | ~79.4 | 7.94 | 1.58 | > 100 | 0.02 | – | – | – | – | –
8 | CN(CCCC(=O)NO)CCNS(=O)(=O)c1ccccc1 [DKFZ-758, N-Hydroxy-4-(methyl(2-(phenylsulfonamido)ethyl)amino)butanamide] | 6.31 | > 100 | 25.1 | 6.31 | > 100 | 0.0316 | – | – | – | – | –
9 | CN(CCCC(=O)NO)CCNC(=O)c1ccc2ccccc2c1 [DKFZ-769, N-(2-((4-(Hydroxyamino)-4-oxobutyl)(methyl)amino)ethyl)-2-naphthamide] | 1.58 | ~39.8 | 2.51 | 1.26 | 5.01 | 0.00501 | – | – | – | – | –
10 | CN(CCCC(=O)NO)CCNC(=O)c1ccc(O)c2ccccc12 [DKFZ-776, 4-Hydroxy-N-(2-((4-(hydroxyamino)-4-oxobutyl)(methyl)amino)ethyl)-1-naphthamide] | 2 | > 100 | 7.94 | 0.631 | 15.8 | 0.00501 | – | – | – | – | –
11 | (1r,3r)-N-Hydroxy-3-((3-oxo-3-(phenylamino)propyl)amino)cyclobutanecarboxamide [DKFZ-759] | – | – | – | – | – | – | 6.3 | 4.9 | 4.4 | <4.0 | <4.0
12 | (1s,3s)-N-Hydroxy-3-((3-oxo-3-(phenylamino)propyl)amino)cyclobutanecarboxamide [DKFZ-767] | – | – | – | – | – | – | 6.9 | 5.1 | 4.9 | 4.6 | ~4.0

Further lines, with some results ahead:

Row | IC50 (HDAC8) [µM] | IC50 (HDAC3/NcoR2 complex) [µM] | IC50 (HDAC1) [µM] | IC50 (HDAC6) [µM] | IC50 (HDAC2) [µM] | IC50 (TwinStrep-GST-HDAC10) [µM] | Compound | pIC50 HDAC10 FRET (TwinStrep-GST-HDAC10) | pIC50 HDAC8 Glo (HDAC8) | pIC50 HDAC1 Glo (HDAC1) | pIC50 HDAC2 Glo (HDAC2) | pIC50 HDAC3 Glo (HDAC3/NcoR2 complex)
13 | 5.01 | ~31.6 | 2.51 | 3.16 | ~39.8 | 0.0251 | CN(CCCC(=O)NO)CCNC(=O)c1ccc(-c2ccccc2)cc1 [DKFZ-746, N-(2-((4-(Hydroxyamino)-4-oxobutyl)(methyl)amino)ethyl)-[1,1′-biphenyl]-4-carboxamide] | – | – | – | – | –
14 | 12.6 | > 100 | 25.1 | 6.31 | > 100 | 0.0398 | CN(CCCC(=O)NO)CCNC(=O)c1cccc(N)c1 [DKFZ-747, 3-Amino-N-(2-((4-(hydroxyamino)-4-oxobutyl)(methyl)amino)ethyl)benzamide] | – | – | – | – | –
15 | 2.51 | > 100 | 10 | 3.16 | > 100 | 0.0794 | Cc1[nH]c2ccccc2c1CC(=O)NCCN(C)CCCC(=O)NO [DKFZ-749, N-Hydroxy-4-(methyl(2-(2-(2-methyl-1H-indol-3-yl)acetamido)ethyl)amino)butanamide] | – | – | – | – | –
16 | 7.94 | > 100 | 25.1 | 6.31 | > 100 | 0.0158 | CN(CCCC(=O)NO)CCNC(=O)c1ccccc1Br [DKFZ-753, 2-Bromo-N-(2-((4-(hydroxyamino)-4-oxobutyl)(methyl)amino)ethyl)benzamide] | – | – | – | – | –
17 | 12.6 | > 100 | 7.94 | 3.16 | > 100 | 0.00794 | CN(CCCC(=O)NO)CCNC(=O)c1ccc2cn[nH]c2c1 [DKFZ-754, N-(2-((4-(Hydroxyamino)-4-oxobutyl)(methyl)amino)ethyl)-1H-indazole-6-carboxamide] | – | – | – | – | –
18 | 2.51 | > 100 | 20 | – | 31.6 | – | CN(CCCC(=O)NO)CC(=O)Nc1ccccc1 [DKFZ-772, N-Hydroxy-4-(methyl(2-oxo-2-(phenylamino)ethyl)amino)butanamide] | – | – | – | – | –
